ChEMBL document CHEMBL5223175, “Discovery of novel 2-oximino-2-indolylacetamide derivatives as potent anticancer agents capable of inducing cell autophagy and ferroptosis” (Bioorg Med Chem, 2023)
Active and inactive are the calls of the source. The calls are words filed in the database; no cut-off is given here.

Assays:
5-8F [1] = assay: Antiproliferative activity against human 5-8F cells assessed as reduction in cell viability incubated for 72 hrs by CCK-8 assay; format: functional, cell-based
5-8F [2] = assay: Antiproliferative activity against human 5-8F cells assessed as reduction in cell viability at 5 to 40 uM incubated for 48 hrs by CCK-8 assay; format: functional, cell-based; conditions: dose 5-40 µM
CAL-27 = assay: Antiproliferative activity against human CAL-27 cells assessed as reduction in cell viability at 5 to 40 uM incubated for 48 hrs by CCK-8 assay; format: functional, cell-based; conditions: dose 5-40 µM
5-8F [3] = assay: Induction of apoptosis in human 5-8F cells assessed as appearance of rounded cells incubated for 48 hrs by microscopic analysis; format: functional, cell-based; conditions: dose 10-30 µM
5-8F [4] = assay: Induction of apoptosis in human 5-8F cells assessed as appearance of floating cells incubated for 48 hrs by microscopic analysis; format: functional, cell-based; conditions: dose 10-30 µM
5-8F [5] = assay: Induction of apoptosis in human 5-8F cells assessed as increase in dead cells incubated for 48 hrs by microscopic analysis; format: functional, cell-based; conditions: dose 10-30 µM
5-8F [6] = assay: Induction of apoptosis in human 5-8F cells assessed as downregulation of procaspase-3 expression at 10 to 30 uM incubated for 48 hrs by Western blotting analysis; format: functional, cell-based; conditions: dose 10-30 µM
5-8F [7] = assay: Induction of apoptosis in human 5-8F cells assessed as downregulation of Bcl-2 expression at 10 to 30 uM incubated for 48 hrs by Western blotting analysis; format: functional, cell-based; conditions: dose 10-30 µM
5-8F [8] = assay: Induction of apoptosis in human 5-8F cells assessed as upregulation of cleaved PARP expression at 10 to 30 uM incubated for 48 hrs by Western blotting analysis; format: functional, cell-based; conditions: dose 10-30 µM
5-8F [9] = assay: Induction of ferroptosis in human 5-8F cells assessed as appearance of mitochondrial pyknosis at 30 uM incubated for 48 hrs by TEM analysis; format: functional, cell-based
5-8F [10] = assay: Induction of ferroptosis in human 5-8F cells assessed as appearance of thickened cristae at 30 uM incubated for 48 hrs by TEM analysis; format: functional, cell-based
5-8F [11] = assay: Induction of ferroptosis in human 5-8F cells assessed as appearance of widened gabs between cristae at 30 uM incubated for 48 hrs by TEM analysis; format: functional, cell-based
5-8F [12] = assay: Induction of ferroptosis in human 5-8F cells assessed as appearance of pseudo inclusion bodies at 30 uM incubated for 48 hrs by TEM analysis; format: functional, cell-based
5-8F [13] = assay: Induction of ferroptosis in human 5-8F cells assessed as decrease in GSH level at 10 to 30 uM incubated for 48 hrs by Western blotting analysis; format: functional, cell-based; conditions: dose 10-30 µM
5-8F [14] = assay: Induction of ferroptosis in human 5-8F cells assessed as decrease in GPx4 expression at 10 to 30 uM incubated for 48 hrs by Western blotting analysis; format: functional, cell-based; conditions: dose 10-30 µM
5-8F [15] = assay: Antiproliferative activity against human 5-8F cells assessed as decrease in cell viability at 30 uM incubated for 48 hrs in presence of Fer-1; format: functional, cell-based
5-8F [16] = assay: Induction of lipid peroxidation in human 5-8F cells at 30 uM after 48 hrs by BODIPY C11 staining based fluorescence microscopy analysis; format: functional, cell-based
5-8F [17] = assay: Induction of lipid peroxidation in human 5-8F cells at 30 uM after 48 hrs by flow cytometry analysis; format: functional, cell-based
5-8F [18] = assay: Downregulation of p-ERK1/2 in human 5-8F cells at 10 to 30 uM by Western blotting analysis; format: functional, cell-based; conditions: dose 10-30 µM
5-8F [19] = assay: Antitumor activity against human 5-8F cells xenografted in BALB/c mouse assessed as decrease in tumor weight at 10 to 20 mg/kg, ip administered daily; format: functional, organism-based; conditions: dose 10-20 mg/kg
[20] = Toxicity in BALB/c mouse xenografted with human 5-8F cells assessed as change in lung morphology at 10 to 20 mg/kg, ip administered daily by H and E staining based assay; format: organism-based; conditions: in vivo, dose 10-20 mg/kg
[21] = Toxicity in BALB/c mouse xenografted with human 5-8F cells assessed as change in heart morphology at 10 to 20 mg/kg, ip administered daily by H and E staining based assay; format: organism-based; conditions: in vivo, dose 10-20 mg/kg

Cn1cc(/C(=N\O)C(=O)Nc2ccc(Cl)cc2)c2ccccc21
IC50 (5-8F [1]): 9.43 µM | Activity (5-8F [2]): Active | Activity (CAL-27): Active | Activity (5-8F [3]): Dose-Dependent Effect | Activity (5-8F [4]): Dose-Dependent Effect | Activity (5-8F [5]): Dose-Dependent Effect | Activity (5-8F [6]): Active | Activity (5-8F [7]): Active | Activity (5-8F [8]): Active | Activity (5-8F [9]): Active | Activity (5-8F [10]): Active | Activity (5-8F [11]): Active | Activity (5-8F [12]): Active | Activity (5-8F [13]): Active | Activity (5-8F [14]): Active | Activity (5-8F [15]): inactive | Activity (5-8F [16]): Active | Activity (5-8F [17]): Active | Activity (5-8F [18]): Active | Activity (5-8F [19]): Active | Activity [20]: Non-Toxic | Activity [21]: Non-Toxic
